Results published in patent publication US6747021B2, “Cryptophycin compound” (Eli Lilly and Company, priority 2000, dated 2004).
Read-outs that look alike come from different tables or passages of the source.

Legend:
[1] = test system: COLON ADENOCARCINOMA-26/A; type: in vivo, murine; settings: Balb/C female mice
From the text: (§1) Inhibition of tumors transplanted into mice is an accepted procedure for studying the efficacy of antitumor agents (Corbett, et al., In vivo Methods for Screening and Preclinical Testing; Use of rodent solid tumors for drug discovery., In: Anticancer Drug Development Guide: Preclinical Screening, Clinical Trials, and Approval, B. Teicher (ed), Humana Press Inc., Totowa, N.J., Chapter 5, pages 75-99 (1997); (Corbett, et al., Int. J. Pharmacog., 33, Supplement, 102-122 (1995)). Murine tumors or human xenographs were implanted essentially as described by Corbett in In vivo Methods for Screening and Preclinical Testing; Use of rodent solid tumors for drug discovery. Briefly, the murine tumor or human xenograph was implanted subcutaneously using either 12-gauge trocar implants or counted number of cells. The location for the trocar insertion is midway between the axillary and inguinal region along the side of the mouse. The trocar is slipped approximately ¾ of an inch subcutaneously up toward the axilla before discharging the tumor fragment, and pinching the skin as the trocar is removed. Alternatively, human tumor cells prepared from a […] of donor tumors (5×10^6 cells) were implanted subcutaneously in a hind-leg of a male or female nude mouse (Charles River). Either a test compound in vehicle or vehicle alone was administered by intravenous bolus injection (iv), intraperitoneal injection (ip), or oral gavage (po). Each treatment group, as well as a group of untreated control animals, consisted of five animals per group in each experiment. Subcutaneous tumor response was monitored by tumor volume measurement performed twice each week over the course of the experiment (60-120 days). Body weights were taken as a general measure of toxicity. The subcutaneous tumor data were analyzed by determining the median tumor weight for each treatment group over the course of the experiment and calculating the tumor growth delay as the difference in days for the treatment versus the control tumors to reach a volume of either 500 or 1000 mm^3.
(§2) Cryptophycin-309 (309) was tested against a variety of murine and human tumors substantially as described supra. Cryptophycin-55 glycinate (55-GLY), Taxol, and Adriamycin (Adria) were also included in certain tests for purposes of comparison. Cryptophycin 55 glycinate is known in the art (WO 98/08505, Example 9) and has the following structure: [drawing 9]
(§3) Tumor Weight(mg)=(a×b^2)/2 where a=tumor length (mm) and b=tumor width (mm).
(§4) Tumor Growth Delay=T−C where T is the median time (days) required for the treatment group tumors to reach a predetermined size, and C is the median time (days) for the control group tumors to reach the same size. Tumor-free survivors are excluded from this calculation, and are tabulated separately (Tumor Free).
(§5) Log Kill=Tumor Growth Delay/(3.32)(Td)
(§6) where Tumor Growth Delay is as previously defined and Td is tumor volume doubling time (days), estimated from the best fit straight line from a log-linear growth plot of the control group of tumors in exponential growth (100-800 mg range)
(§7) %T/C mass—The treatment and control groups are measured when the control group tumors reach approximately 700 to 1200 mg in size (median group). The median tumor weight of each group is determined (including zeros). The T/C value in percent is an indication of antitumor effectiveness. A T/C≦42% is considered significant antitumor activity. A T/C<10% is considered to indicate highly significant antitumor activity.
(§8) Body Weight Loss Nadir—A body weight loss nadir (mean of group) of greater than 20% or drug deaths greater than 20% are considered to indicate an excessively toxic dosage in single course trials.
(§9) Activity Rating—the Activity Rating is derived from the Log Kill according to the following table: […]

[2] = test system: MAMMARY ADENOCARCINOMA 16/C; type: in vivo, murine; settings: C3H/HeN female mice
From the text: as §1, §2, §3, §4, §5, §6, §7, §8, §9

[3] = test system: PANCREATIC DUCTAL ADENOCARCINOMA #02; type: in vivo, murine; settings: BDF1 female mice
From the text: as §1, §2, §3, §4, §5, §6, §7, §8, §9

[4] = test system: MAMMARY ADENOCARCINOMA-17/ADR/Resist.; type: in vivo, murine; settings: IV 30 mg/kg/inj days 1,3,5,7,9; total dose 150 mg/kg; C3H female mice
From the text: as §1, §2, §3, §4, §5, §6, §7, §8, §9

HUMAN COLON ADEN[…]-116 = test: Early stage human colon adenocarcinoma HCT-116 xenograft assay; type: in vivo; settings: Balb/C SCID female mice
From the text: as §1, §2, §3, §4, §5, §6, §7, §8, §9

[5] = IV 15 mg/kg/inj days 1,3,5,7,9, total dose 75 mg/kg
[6] = IV 23 mg/kg/inj days 1,3,5,7,9, total dose 115 mg/kg
[7] = IV 35 mg/kg/inj days 1,3,5,7,9, total dose 175 mg/kg
[8] = IV 20 mg/kg/inj days 3,5,7,9,11, total dose 100 mg/kg
[9] = IV 30 mg/kg/inj days 3,5,7,9,11, total dose 150 mg/kg
[10] = IV 20 mg/kg/inj days 1,3,5,7,9, total dose 100 mg/kg, experiment #
[11] = IV 30 mg/kg/inj days 1,3,5,7,9, total dose 150 mg/kg, experiment #
[12] = IV 33 mg/kg/inj days 1,3,5,7,9, total dose 165 mg/kg, experiment ##
[13] = IV 16.5 mg/kg/inj days 3,5,7,9,11, total dose 82.5 mg/kg
[14] = IV 25 mg/kg/inj days 3,5,7,9,11, total dose 125 mg/kg
[15] = IV 38 mg/kg/inj days 3,5,7,9,11, total dose 190 mg/kg

COc1ccc(C[C@H]2NC(=O)/C=C/C[C@@H]([C@H](C)[C@@H](OC(=O)CN)[C@@H](Cl)c3ccccc3)OC(=O)[C@H](CC(C)(C)C)OC(=O)[C@H](C)CNC2=O)cc1Cl [Cryptophycin 309, Cryptophycin-309]
% T/C MASS [1, 5]: 14%
ACTIVITY RATING [1, 5]: + (0.7-1.2)
DRUG DEATHS [1, 5]: 0/5
GROWTH DELAY [1, 5]: 6.65 days
LOG KILL [1, 5]: 1.2
MEDIAN TUMOR WEIGHT [1, 5]: 126 mg
% T/C MASS [1, 6]: 0%
ACTIVITY RATING [1, 6]: +++ (2.0-2.8)
DRUG DEATHS [1, 6]: 0/5
GROWTH DELAY [1, 6]: 12.75 days
LOG KILL [1, 6]: 2.3
MEDIAN TUMOR WEIGHT [1, 6]: 0 mg
% T/C MASS [1, 7]: 0%
ACTIVITY RATING [1, 7]: +++ (2.0-2.8)
DRUG DEATHS [1, 7]: 0/5
GROWTH DELAY [1, 7]: 15.25 days
LOG KILL [1, 7]: 2.7
MEDIAN TUMOR WEIGHT [1, 7]: 0 mg
% T/C MASS [2, 8]: 0%
ACTIVITY RATING [2, 8]: ++++ (>2.8)
DRUG DEATHS [2, 8]: 0/5
GROWTH DELAY [2, 8]: 17 days
LOG KILL [2, 8]: 3.9
MEDIAN TUMOR WEIGHT [2, 8]: 0 mg
% T/C MASS [2, 9]: 0%
ACTIVITY RATING [2, 9]: ++++ (>2.8)
DRUG DEATHS [2, 9]: 0/5
GROWTH DELAY [2, 9]: 16.5 days
LOG KILL [2, 9]: 3.8
MEDIAN TUMOR WEIGHT [2, 9]: 0 mg
% T/C MASS [3, 10]: 3.8%
ACTIVITY RATING [3, 10]: ++ (1.3-1.9)
DRUG DEATHS [3, 10]: 0/5
GROWTH DELAY [3, 10]: 13 days
LOG KILL [3, 10]: 1.7
MEDIAN TUMOR WEIGHT [3, 10]: 63 mg
% T/C MASS [3, 11]: 3.8%
ACTIVITY RATING [3, 11]: ++ (1.3-1.9)
DRUG DEATHS [3, 11]: 0/5
GROWTH DELAY [3, 11]: 13 days
LOG KILL [3, 11]: 1.7
MEDIAN TUMOR WEIGHT [3, 11]: 64 mg
% T/C MASS [3, 12]: 0%
ACTIVITY RATING [3, 12]: +++ (2.0-2.8)
DRUG DEATHS [3, 12]: 0/5
GROWTH DELAY [3, 12]: 15.25 days
LOG KILL [3, 12]: 2.7
MEDIAN TUMOR WEIGHT [3, 12]: 0 mg
% T/C MASS [4]: 0%
ACTIVITY RATING [4]: ++++ (>2.8)
DRUG DEATHS [4]: 0/5
GROWTH DELAY [4]: 10.75 days
LOG KILL [4]: 3.23
MEDIAN TUMOR WEIGHT [4]: 0 mg
% T/C MASS (HUMAN COLON ADEN[…]-116; [13]): 0%
ACTIVITY RATING (HUMAN COLON ADEN[…]-116; [13]): +++ (2.0-2.8)
DRUG DEATHS (HUMAN COLON ADEN[…]-116; [13]): 0/5
GROWTH DELAY (HUMAN COLON ADEN[…]-116; [13]): 22 days
LOG KILL (HUMAN COLON ADEN[…]-116; [13]): 2.65
MEDIAN TUMOR WEIGHT (HUMAN COLON ADEN[…]-116; [13]): 0 mg
% T/C MASS (HUMAN COLON ADEN[…]-116; [14]): 0%
ACTIVITY RATING (HUMAN COLON ADEN[…]-116; [14]): ++++ (>2.8)
DRUG DEATHS (HUMAN COLON ADEN[…]-116; [14]): 0/5
GROWTH DELAY (HUMAN COLON ADEN[…]-116; [14]): 29.5 days
LOG KILL (HUMAN COLON ADEN[…]-116; [14]): 3.6
MEDIAN TUMOR WEIGHT (HUMAN COLON ADEN[…]-116; [14]): 0 mg
% T/C MASS (HUMAN COLON ADEN[…]-116; [15]): 0%
ACTIVITY RATING (HUMAN COLON ADEN[…]-116; [15]): ++++ (>2.8)
DRUG DEATHS (HUMAN COLON ADEN[…]-116; [15]): 0/5
GROWTH DELAY (HUMAN COLON ADEN[…]-116; [15]): 34 days
LOG KILL (HUMAN COLON ADEN[…]-116; [15]): 4.1
MEDIAN TUMOR WEIGHT (HUMAN COLON ADEN[…]-116; [15]): 0 mg
